From patent US8802597B2, “Herbicidal pyrimidines” (E I du Pont de Nemours and Company, priority 2003, dated 2014)
Where two headings read alike, the source gives them in different places.

Columns and labels:
Assay in all cases: Test C pre/postemergence
Type in all cases: in vivo
kochia (Kochia scoparia) = settings: Bassia scoparia; for pest or weed control at 125 g/ha: 125 g ai/ha; for pest or weed control at 250 g/ha: 250 g ai/ha
In short: (§1)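 Injury scored visually 12–14 days after application on 0–100 scale (100 = complete control), relative to controls. Compounds, formulated with surfactant in non-phytotoxic solvent, applied to soil at planting (pre) or to 1- to 4-leaf plants 2–18 cm tall (post) in greenhouse.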

[1] = test system: crabgrass (Digitaria sanguinalis); settings: Digitaria sanguinalis; for pest or weed control at 31 g/ha: 31 g ai/ha; for pest or weed control at 62 g/ha: 62 g ai/ha; for pest or weed control at 125 g/ha: 125 g ai/ha; for pest or weed control at 250 g/ha: 250 g ai/ha
In short: as §1

[2] = test system: woolly cupgrass (Eriochloa villosa); settings: Eriochloa villosa; for pest or weed control at 31 g/ha: 31 g ai/ha; for pest or weed control at 62 g/ha: 62 g ai/ha; for pest or weed control at 125 g/ha: 125 g ai/ha
In short: as §1

[3] = test system: goosegrass (Eleusine indica); settings: Eleusine indica; for pest or weed control at 31 g/ha: 31 g ai/ha; for pest or weed control at 62 g/ha: 62 g ai/ha; for pest or weed control at 125 g/ha: 125 g ai/ha; for pest or weed control at 250 g/ha: 250 g ai/ha
In short: as §1

[4] = test system: morningglory (Ipomoea coccinea); settings: Ipomoea; for pest or weed control at 31 g/ha: 31 g ai/ha; for pest or weed control at 62 g/ha: 62 g ai/ha; for pest or weed control at 125 g/ha: 125 g ai/ha; for pest or weed control at 250 g/ha: 250 g ai/ha
In short: as §1

[5] = test system: johnsongrass (Sorghum halepense); settings: Sorghum halepense; for pest or weed control at 31 g/ha: 31 g ai/ha; for pest or weed control at 62 g/ha: 62 g ai/ha; for pest or weed control at 125 g/ha: 125 g ai/ha; for pest or weed control at 250 g/ha: 250 g ai/ha
In short: as §1

[6] = pre-emergence, Preemergence, scale 0 to 100, read-out: Plant response rating, Kochia
[7] = post-emergence, Postemergence, scale 0 to 100 (0 no effect, 100 complete control), read-out: Crabgrass plant response rating
[8] = pre-emergence, Preemergence, scale 0 to 100, 0 no effect, 100 complete control, read-out: Plant response rating, Crabgrass
[9] = pre-emergence, Preemergence, scale 0 to 100, read-out: Plant response rating, Crabgrass
[10] = post-emergence, Postemergence, scale 0 to 100 (0 no effect, 100 complete control), read-out: Cupgrass, Woolly plant response rating
[11] = pre-emergence, Preemergence, scale 0 to 100, 0 no effect, 100 complete control, read-out: Plant response rating, Cupgrass, Woolly
[12] = post-emergence, Postemergence, scale 0 to 100 (0 no effect, 100 complete control), read-out: Goosegrass plant response rating
[13] = pre-emergence, Preemergence, scale 0 to 100, 0 no effect, 100 complete control, read-out: Plant response rating, Goosegrass
[14] = pre-emergence, Preemergence, scale 0 to 100, read-out: Plant response rating, Goosegrass
[15] = post-emergence, Postemergence, scale 0 to 100 (0 no effect, 100 complete control), read-out: Morningglory plant response rating
[16] = pre-emergence, Preemergence, scale 0 to 100, 0 no effect, 100 complete control, read-out: Plant response rating, Morningglory
[17] = pre-emergence, Preemergence, scale 0 to 100, read-out: Plant response rating, Morningglory
[18] = post-emergence, Postemergence, scale 0 to 100 (0 no effect, 100 complete control), read-out: Johnsongrass plant response rating
[19] = pre-emergence, Preemergence, scale 0 to 100, 0 no effect, 100 complete control, read-out: Plant response rating, Johnsongrass
[20] = pre-emergence, Preemergence, scale 0 to 100, read-out: Plant response rating, Johnsongrass

Question: Which pest or weed control at 125 g/ha (kochia (Kochia scoparia); post-emergence, Postemergence, scale 0 to 100 (0 no effect, 100 complete control), read-out: Kochia plant response rating) does the source give for `CCOC(=O)c1nc(-c2ccc(Cl)cc2)nc(N)c1Cl` [Compound 64, ethyl 6-amino-5-chloro-2-(4-chlorophenyl)-4-pyrimidinecarboxylate] here?
Answer: The pest or weed control at 125 g/ha was 90%.

Question: What about the pest or weed control at 250 g/ha (kochia (Kochia scoparia); post-emergence, Postemergence, scale 0 to 100, read-out: Plant response rating, Kochia) of the same compound?
Answer: The pest or weed control at 250 g/ha was 90%.

Question: What about the pest or weed control at 31 g/ha (kochia (Kochia scoparia); pre-emergence, Preemergence, 31 g ai/ha, scale 0 to 100, 0 no effect, 100 complete control, read-out: Plant response rating, Kochia) of the same compound?
Answer: Its pest or weed control at 31 g/ha is 20%.

Question: What about the pest or weed control at 62 g/ha (kochia (Kochia scoparia); pre-emergence, Preemergence, 62 g ai/ha, scale 0 to 100, 0 no effect, 100 complete control, read-out: Plant response rating, Kochia) of the same compound?
Answer: The pest or weed control at 62 g/ha was 20%.

Question: And the pest or weed control at 125 g/ha (kochia (Kochia scoparia); [6])?
Answer: The pest or weed control at 125 g/ha was 25%.

Question: What about the pest or weed control at 250 g/ha (kochia (Kochia scoparia); [6]) of the same compound?
Answer: Its pest or weed control at 250 g/ha is 70%.

Question: What about the pest or weed control at 31 g/ha ([1]; post-emergence, Postemergence, read-out: Plant response rating (scale of 0 to 100), Crabgrass) of the same compound?
Answer: Its pest or weed control at 31 g/ha is 70%.

Question: What about the pest or weed control at 62 g/ha [1, 7] of the same compound?
Answer: The pest or weed control at 62 g/ha was 80%.

Question: And the pest or weed control at 125 g/ha [1, 7]?
Answer: The pest or weed control at 125 g/ha was 85%.

Question: What about the pest or weed control at 250 g/ha ([1]; post-emergence, Postemergence, scale 0 to 100, read-out: Plant response rating, Crabgrass) of the same compound?
Answer: Its pest or weed control at 250 g/ha is 90%.

Question: What about the pest or weed control at 31 g/ha [1, 8] of the same compound?
Answer: Its pest or weed control at 31 g/ha is 0%.

Question: And the pest or weed control at 62 g/ha [1, 8]?
Answer: Its pest or weed control at 62 g/ha is 0%.

Question: What about the pest or weed control at 125 g/ha [1, 9] of the same compound?
Answer: The pest or weed control at 125 g/ha was 70%.

Question: What about the pest or weed control at 250 g/ha [1, 9] of the same compound?
Answer: Its pest or weed control at 250 g/ha is 90%.

Question: And the pest or weed control at 31 g/ha ([2]; post-emergence, Postemergence, read-out: Plant response rating (scale of 0 to 100), Cupgrass, Woolly)?
Answer: Its pest or weed control at 31 g/ha is 30%.

Question: What about the pest or weed control at 62 g/ha [2, 10] of the same compound?
Answer: Its pest or weed control at 62 g/ha is 40%.

Question: And the pest or weed control at 125 g/ha [2, 10]?
Answer: The pest or weed control at 125 g/ha was 65%.

Question: What about the pest or weed control at 31 g/ha [2, 11] of the same compound?
Answer: Its pest or weed control at 31 g/ha is 0%.

Question: And the pest or weed control at 62 g/ha [2, 11]?
Answer: Its pest or weed control at 62 g/ha is 0%.

Question: And the pest or weed control at 125 g/ha ([2]; pre-emergence, Preemergence, scale 0 to 100, read-out: Plant response rating, Cupgrass, Woolly)?
Answer: The pest or weed control at 125 g/ha was 0%.

Question: And the pest or weed control at 250 g/ha ([2]; pre-emergence, Preemergence, 250 g ai/ha, scale 0 to 100, read-out: Plant response rating, Cupgrass, Woolly)?
Answer: Its pest or weed control at 250 g/ha is 40%.

Question: What about the pest or weed control at 31 g/ha ([3]; post-emergence, Postemergence, read-out: Plant response rating (scale of 0 to 100), Goosegrass) of the same compound?
Answer: The pest or weed control at 31 g/ha was 35%.

Question: What about the pest or weed control at 62 g/ha [3, 12] of the same compound?
Answer: Its pest or weed control at 62 g/ha is 35%.

Question: What about the pest or weed control at 125 g/ha [3, 12] of the same compound?
Answer: Its pest or weed control at 125 g/ha is 60%.

Question: What about the pest or weed control at 250 g/ha ([3]; post-emergence, Postemergence, scale 0 to 100, read-out: Plant response rating, Goosegrass) of the same compound?
Answer: The pest or weed control at 250 g/ha was 70%.

Question: What about the pest or weed control at 31 g/ha [3, 13] of the same compound?
Answer: The pest or weed control at 31 g/ha was 0%.

Question: And the pest or weed control at 62 g/ha [3, 13]?
Answer: The pest or weed control at 62 g/ha was 0%.

Question: And the pest or weed control at 125 g/ha [3, 14]?
Answer: Its pest or weed control at 125 g/ha is 0%.

Question: What about the pest or weed control at 250 g/ha [3, 14] of the same compound?
Answer: Its pest or weed control at 250 g/ha is 75%.

Question: What about the pest or weed control at 31 g/ha ([4]; post-emergence, Postemergence, read-out: Plant response rating (scale of 0 to 100), Morningglory) of the same compound?
Answer: Its pest or weed control at 31 g/ha is 90%.

Question: And the pest or weed control at 62 g/ha [4, 15]?
Answer: The pest or weed control at 62 g/ha was 90%.

Question: What about the pest or weed control at 125 g/ha [4, 15] of the same compound?
Answer: Its pest or weed control at 125 g/ha is 90%.

Question: What about the pest or weed control at 250 g/ha ([4]; post-emergence, Postemergence, scale 0 to 100, read-out: Plant response rating, Morningglory) of the same compound?
Answer: Its pest or weed control at 250 g/ha is 90%.

Question: What about the pest or weed control at 31 g/ha [4, 16] of the same compound?
Answer: Its pest or weed control at 31 g/ha is 0%.

Question: What about the pest or weed control at 62 g/ha [4, 16] of the same compound?
Answer: Its pest or weed control at 62 g/ha is 0%.

Question: And the pest or weed control at 125 g/ha [4, 17]?
Answer: The pest or weed control at 125 g/ha was 0%.

Question: And the pest or weed control at 250 g/ha [4, 17]?
Answer: Its pest or weed control at 250 g/ha is 10%.

Question: What about the pest or weed control at 31 g/ha ([5]; post-emergence, Postemergence, read-out: Plant response rating (scale of 0 to 100), Johnsongrass) of the same compound?
Answer: Its pest or weed control at 31 g/ha is 60%.

Question: And the pest or weed control at 62 g/ha [5, 18]?
Answer: Its pest or weed control at 62 g/ha is 80%.

Question: And the pest or weed control at 125 g/ha [5, 18]?
Answer: Its pest or weed control at 125 g/ha is 85%.

Question: And the pest or weed control at 250 g/ha ([5]; post-emergence, Postemergence, scale 0 to 100, read-out: Plant response rating, Johnsongrass)?
Answer: Its pest or weed control at 250 g/ha is 85%.

Question: What about the pest or weed control at 31 g/ha [5, 19] of the same compound?
Answer: The pest or weed control at 31 g/ha was 5%.

Question: What about the pest or weed control at 62 g/ha [5, 19] of the same compound?
Answer: Its pest or weed control at 62 g/ha is 5%.

Question: What about the pest or weed control at 125 g/ha [5, 20] of the same compound?
Answer: The pest or weed control at 125 g/ha was 50%.

Question: And the pest or weed control at 250 g/ha [5, 20]?
Answer: The pest or weed control at 250 g/ha was 60%.
